{"source": "ChEMBL document CHEMBL1124620", "about": "“New 1,4-dihydropyridine derivatives combining calcium antagonism and alpha-adrenolytic properties” (J Med Chem, 1989)", "biological_target": "T1, Adrenergic receptor alpha-2 (Homo sapiens, UniProt P08913+P18825+P18089)", "T1 sequence (P08913 whole entry)": "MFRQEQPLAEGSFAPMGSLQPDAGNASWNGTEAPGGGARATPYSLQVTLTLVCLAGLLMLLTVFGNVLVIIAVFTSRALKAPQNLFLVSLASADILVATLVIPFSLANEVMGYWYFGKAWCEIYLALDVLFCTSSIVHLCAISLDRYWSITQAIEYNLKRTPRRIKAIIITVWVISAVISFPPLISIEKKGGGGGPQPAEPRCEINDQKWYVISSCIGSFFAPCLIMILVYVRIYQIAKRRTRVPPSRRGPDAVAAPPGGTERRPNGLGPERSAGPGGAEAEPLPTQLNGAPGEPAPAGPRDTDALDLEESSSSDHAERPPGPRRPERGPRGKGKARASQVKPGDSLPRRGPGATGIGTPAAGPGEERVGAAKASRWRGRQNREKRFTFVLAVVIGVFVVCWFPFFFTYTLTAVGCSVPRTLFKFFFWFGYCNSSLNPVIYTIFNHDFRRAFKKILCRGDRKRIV", "T1 sequence (P18825 whole entry)": "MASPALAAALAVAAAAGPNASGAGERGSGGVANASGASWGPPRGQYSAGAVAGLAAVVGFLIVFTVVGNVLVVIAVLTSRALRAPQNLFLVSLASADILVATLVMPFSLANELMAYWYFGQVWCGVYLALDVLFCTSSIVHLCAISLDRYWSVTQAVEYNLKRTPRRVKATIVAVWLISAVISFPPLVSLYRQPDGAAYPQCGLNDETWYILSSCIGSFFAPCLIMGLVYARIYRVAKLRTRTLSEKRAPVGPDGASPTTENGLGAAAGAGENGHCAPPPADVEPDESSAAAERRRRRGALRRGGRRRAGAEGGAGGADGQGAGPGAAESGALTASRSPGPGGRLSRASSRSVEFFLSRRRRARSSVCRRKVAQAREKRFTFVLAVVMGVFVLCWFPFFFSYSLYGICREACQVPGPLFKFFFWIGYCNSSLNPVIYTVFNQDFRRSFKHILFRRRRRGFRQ", "T1 sequence (P18089 whole entry)": "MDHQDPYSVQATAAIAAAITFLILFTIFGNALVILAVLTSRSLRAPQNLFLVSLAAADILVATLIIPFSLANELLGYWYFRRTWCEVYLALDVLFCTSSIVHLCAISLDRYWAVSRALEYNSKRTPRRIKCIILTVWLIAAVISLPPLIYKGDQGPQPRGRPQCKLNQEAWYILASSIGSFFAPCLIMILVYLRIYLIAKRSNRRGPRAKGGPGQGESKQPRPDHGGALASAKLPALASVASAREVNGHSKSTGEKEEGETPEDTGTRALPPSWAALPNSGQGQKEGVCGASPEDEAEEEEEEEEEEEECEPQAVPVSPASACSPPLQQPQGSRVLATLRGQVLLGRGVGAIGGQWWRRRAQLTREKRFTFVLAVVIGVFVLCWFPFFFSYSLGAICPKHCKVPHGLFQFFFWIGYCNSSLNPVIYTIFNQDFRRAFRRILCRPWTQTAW", "test": "Alpha-2-adrenolytic activity was assessed in vitro from the ability to inhibit norepinephrine binding to guinea pig vas deferens", "design": "species or system Cavia porcellus", "details": "target entry is the homologue from another species", "data": [{"molecule": "CC1=NC(C)=C(C(=O)OC(C)CN(C)CC2COc3ccccc3O2)C(c2cccc([N+](=O)[O-])c2)/C1=C(\\O)OC(C)C.Cl", "note": "(stereo unspecified)", "values": [{"measurement": "IC50", "value": ">> 1e-6 M"}]}]}
